Tests used:
Vasopressin V1a receptor = Vasopressin V1a receptor (Homo sapiens, UniProt P37288)
[1] = target: T1, Muscarinic acetylcholine receptor M2 (Homo sapiens, UniProt P08172); format: functional, cell-based
T1 sequence (P08172 whole entry): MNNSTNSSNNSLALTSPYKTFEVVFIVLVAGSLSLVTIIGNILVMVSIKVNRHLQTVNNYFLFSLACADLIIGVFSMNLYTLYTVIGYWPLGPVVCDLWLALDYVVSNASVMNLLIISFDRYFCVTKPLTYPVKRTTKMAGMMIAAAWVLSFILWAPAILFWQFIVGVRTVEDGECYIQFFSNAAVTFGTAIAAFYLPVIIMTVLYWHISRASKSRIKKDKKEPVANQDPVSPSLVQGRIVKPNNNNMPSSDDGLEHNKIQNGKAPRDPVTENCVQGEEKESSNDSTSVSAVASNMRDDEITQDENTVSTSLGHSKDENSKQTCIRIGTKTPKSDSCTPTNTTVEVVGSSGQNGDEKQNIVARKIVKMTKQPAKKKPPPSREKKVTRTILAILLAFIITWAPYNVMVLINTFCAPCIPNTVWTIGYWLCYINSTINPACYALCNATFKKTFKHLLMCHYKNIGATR

[2] = target: T1, Muscarinic acetylcholine receptor M2; format: functional, cell-based; remark: listed apart in the source
[3] = target: Muscarinic acetylcholine receptor M3 (Homo sapiens, UniProt P20309)
[4] = target: Neuronal acetylcholine receptor subunit alpha-4 (Homo sapiens, UniProt P43681)
[5] = target: Gamma-aminobutyric acid receptor subunit alpha-1 (Rattus norvegicus, UniProt P62813)
[6] = target: Voltage-gated inwardly rectifying potassium channel KCNH2 (Homo sapiens, UniProt Q12809); format: functional; settings: read-out: AC50
Melanocortin receptor 3 = Melanocortin receptor 3 (Homo sapiens, UniProt P41968)
[7] = target: T2, Neuropeptide Y receptor type 1 (Homo sapiens, UniProt P25929)
T2 sequence (P25929 whole entry): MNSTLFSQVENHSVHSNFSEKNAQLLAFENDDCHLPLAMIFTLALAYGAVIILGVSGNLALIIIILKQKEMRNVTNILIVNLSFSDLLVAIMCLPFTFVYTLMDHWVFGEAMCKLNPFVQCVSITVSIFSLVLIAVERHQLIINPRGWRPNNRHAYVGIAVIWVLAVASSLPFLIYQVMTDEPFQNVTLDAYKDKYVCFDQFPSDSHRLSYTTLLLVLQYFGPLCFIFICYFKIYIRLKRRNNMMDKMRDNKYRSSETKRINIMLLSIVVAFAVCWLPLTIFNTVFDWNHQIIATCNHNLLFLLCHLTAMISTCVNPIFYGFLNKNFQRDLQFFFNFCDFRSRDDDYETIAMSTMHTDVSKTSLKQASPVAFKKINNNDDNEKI

[8] = target: Delta-type opioid receptor (Homo sapiens, UniProt P41143)
[9] = target: Kappa-type opioid receptor (Homo sapiens, UniProt P41145)
Thromboxane A2 receptor = target: T3, Thromboxane A2 receptor (Homo sapiens, UniProt P21731)
T3 sequence (P21731 whole entry): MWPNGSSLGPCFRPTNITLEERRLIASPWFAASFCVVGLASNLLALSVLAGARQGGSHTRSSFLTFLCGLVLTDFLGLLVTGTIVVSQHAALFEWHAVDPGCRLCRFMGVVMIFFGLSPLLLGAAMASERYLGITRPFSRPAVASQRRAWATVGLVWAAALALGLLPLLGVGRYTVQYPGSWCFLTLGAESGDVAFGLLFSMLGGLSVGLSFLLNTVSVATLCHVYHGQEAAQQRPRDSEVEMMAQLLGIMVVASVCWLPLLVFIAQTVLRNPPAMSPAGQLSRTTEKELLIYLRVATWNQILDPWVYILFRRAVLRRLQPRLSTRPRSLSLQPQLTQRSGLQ

D(3) dopamine receptor = D(3) dopamine receptor (Homo sapiens, UniProt P35462)
Progesterone receptor = target: T4, Progesterone receptor (Homo sapiens, UniProt P06401); format: functional
T4 sequence (P06401 whole entry): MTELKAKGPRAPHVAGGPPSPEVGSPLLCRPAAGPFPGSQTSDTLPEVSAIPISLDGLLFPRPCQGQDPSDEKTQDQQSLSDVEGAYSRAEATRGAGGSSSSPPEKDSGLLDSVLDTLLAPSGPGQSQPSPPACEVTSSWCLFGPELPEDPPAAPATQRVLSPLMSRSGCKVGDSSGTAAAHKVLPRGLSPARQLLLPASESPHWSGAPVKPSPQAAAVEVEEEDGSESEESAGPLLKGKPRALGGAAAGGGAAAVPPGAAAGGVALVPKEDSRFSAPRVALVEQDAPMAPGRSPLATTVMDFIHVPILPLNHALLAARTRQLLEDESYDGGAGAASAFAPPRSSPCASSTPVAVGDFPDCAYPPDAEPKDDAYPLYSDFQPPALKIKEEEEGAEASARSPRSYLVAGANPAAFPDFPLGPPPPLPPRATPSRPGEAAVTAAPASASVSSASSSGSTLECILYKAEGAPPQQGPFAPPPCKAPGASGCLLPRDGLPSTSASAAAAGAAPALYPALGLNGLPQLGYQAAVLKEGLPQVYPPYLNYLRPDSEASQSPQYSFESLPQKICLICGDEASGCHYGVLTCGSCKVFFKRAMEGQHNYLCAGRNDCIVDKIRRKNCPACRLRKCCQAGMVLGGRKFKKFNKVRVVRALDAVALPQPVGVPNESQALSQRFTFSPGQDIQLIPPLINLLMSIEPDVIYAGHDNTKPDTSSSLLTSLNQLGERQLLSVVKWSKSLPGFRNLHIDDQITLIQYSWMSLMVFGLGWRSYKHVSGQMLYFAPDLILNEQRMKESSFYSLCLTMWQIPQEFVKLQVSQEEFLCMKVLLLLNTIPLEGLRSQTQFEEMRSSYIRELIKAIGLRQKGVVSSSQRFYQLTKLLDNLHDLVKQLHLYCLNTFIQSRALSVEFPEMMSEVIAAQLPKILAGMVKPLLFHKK
Note: assay procedure not described here.

Delta-type opioid receptor, sequence (P41143 whole entry): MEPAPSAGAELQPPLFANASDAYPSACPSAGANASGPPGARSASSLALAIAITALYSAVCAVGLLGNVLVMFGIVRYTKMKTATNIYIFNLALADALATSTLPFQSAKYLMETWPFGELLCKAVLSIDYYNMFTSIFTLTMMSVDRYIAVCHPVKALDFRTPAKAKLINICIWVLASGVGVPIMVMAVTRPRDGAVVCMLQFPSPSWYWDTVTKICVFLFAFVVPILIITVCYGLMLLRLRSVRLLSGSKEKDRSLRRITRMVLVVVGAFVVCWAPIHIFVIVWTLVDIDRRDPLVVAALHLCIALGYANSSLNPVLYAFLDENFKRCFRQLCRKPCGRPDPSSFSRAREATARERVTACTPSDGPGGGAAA
D(3) dopamine receptor, sequence (P35462 whole entry): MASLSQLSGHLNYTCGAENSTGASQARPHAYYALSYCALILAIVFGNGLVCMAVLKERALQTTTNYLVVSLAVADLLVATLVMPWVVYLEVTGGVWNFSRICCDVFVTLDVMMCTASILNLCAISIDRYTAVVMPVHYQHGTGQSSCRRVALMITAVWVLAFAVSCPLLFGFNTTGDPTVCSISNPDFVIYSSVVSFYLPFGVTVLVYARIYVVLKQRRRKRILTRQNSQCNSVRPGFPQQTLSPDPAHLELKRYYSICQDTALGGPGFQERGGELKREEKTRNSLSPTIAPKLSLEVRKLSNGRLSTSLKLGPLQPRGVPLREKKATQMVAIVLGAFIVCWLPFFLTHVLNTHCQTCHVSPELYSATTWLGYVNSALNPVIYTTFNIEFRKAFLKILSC
Kappa-type opioid receptor, sequence (P41145 whole entry): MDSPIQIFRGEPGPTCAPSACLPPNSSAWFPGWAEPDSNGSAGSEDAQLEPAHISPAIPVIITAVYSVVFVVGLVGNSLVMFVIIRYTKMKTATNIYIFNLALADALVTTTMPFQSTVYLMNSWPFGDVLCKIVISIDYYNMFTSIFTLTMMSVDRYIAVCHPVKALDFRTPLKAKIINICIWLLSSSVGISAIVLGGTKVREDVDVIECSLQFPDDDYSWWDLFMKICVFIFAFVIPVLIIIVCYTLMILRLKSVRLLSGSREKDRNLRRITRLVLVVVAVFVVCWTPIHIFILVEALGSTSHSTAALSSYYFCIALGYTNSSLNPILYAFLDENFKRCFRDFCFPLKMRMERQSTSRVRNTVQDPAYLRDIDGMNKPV
Voltage-gated inwardly rectifying potassium channel KCNH2, sequence (Q12809 whole entry): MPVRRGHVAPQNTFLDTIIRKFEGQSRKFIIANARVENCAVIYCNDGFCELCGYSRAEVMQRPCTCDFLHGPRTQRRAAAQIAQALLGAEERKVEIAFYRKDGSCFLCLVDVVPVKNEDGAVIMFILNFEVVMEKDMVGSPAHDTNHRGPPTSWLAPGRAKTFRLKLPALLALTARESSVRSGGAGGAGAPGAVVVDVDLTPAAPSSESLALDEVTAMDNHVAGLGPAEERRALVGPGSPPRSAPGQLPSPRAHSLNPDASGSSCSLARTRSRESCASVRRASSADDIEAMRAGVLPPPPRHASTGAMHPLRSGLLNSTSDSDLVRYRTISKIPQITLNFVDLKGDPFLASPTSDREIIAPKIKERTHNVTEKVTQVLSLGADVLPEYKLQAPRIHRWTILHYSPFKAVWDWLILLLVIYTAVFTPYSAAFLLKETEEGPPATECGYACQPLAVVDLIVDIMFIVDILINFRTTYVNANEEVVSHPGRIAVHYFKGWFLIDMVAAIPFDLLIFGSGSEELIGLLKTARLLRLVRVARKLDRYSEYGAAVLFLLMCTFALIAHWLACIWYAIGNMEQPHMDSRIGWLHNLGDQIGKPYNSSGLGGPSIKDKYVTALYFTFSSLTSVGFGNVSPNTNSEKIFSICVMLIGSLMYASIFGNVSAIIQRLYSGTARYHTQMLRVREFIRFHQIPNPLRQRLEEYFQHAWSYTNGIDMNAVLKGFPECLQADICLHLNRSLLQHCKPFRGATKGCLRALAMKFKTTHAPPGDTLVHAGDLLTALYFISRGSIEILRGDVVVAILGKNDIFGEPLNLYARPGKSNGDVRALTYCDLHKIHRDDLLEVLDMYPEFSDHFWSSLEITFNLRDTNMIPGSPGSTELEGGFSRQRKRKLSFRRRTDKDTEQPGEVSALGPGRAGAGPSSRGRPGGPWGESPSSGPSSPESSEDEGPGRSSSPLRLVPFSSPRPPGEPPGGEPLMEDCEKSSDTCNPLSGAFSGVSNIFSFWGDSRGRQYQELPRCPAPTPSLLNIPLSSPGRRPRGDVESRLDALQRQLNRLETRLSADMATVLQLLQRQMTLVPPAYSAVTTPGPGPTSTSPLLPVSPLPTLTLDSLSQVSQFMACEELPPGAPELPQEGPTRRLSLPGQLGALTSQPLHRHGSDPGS
Muscarinic acetylcholine receptor M3, sequence (P20309 whole entry): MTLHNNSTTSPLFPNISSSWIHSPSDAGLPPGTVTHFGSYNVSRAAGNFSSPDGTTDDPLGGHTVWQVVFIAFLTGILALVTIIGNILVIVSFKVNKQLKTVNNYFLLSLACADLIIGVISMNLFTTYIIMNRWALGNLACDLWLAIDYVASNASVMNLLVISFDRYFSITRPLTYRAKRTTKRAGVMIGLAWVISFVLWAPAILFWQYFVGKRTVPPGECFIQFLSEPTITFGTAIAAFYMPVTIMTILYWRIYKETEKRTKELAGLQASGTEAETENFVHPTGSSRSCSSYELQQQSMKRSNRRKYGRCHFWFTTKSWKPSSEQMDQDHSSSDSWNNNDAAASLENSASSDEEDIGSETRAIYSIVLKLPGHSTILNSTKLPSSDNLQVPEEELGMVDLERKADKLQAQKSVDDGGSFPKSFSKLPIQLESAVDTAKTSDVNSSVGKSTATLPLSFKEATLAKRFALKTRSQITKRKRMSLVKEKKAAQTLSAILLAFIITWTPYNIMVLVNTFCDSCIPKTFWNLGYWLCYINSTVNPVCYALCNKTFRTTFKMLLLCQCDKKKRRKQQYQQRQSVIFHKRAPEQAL
Neuronal acetylcholine receptor subunit alpha-4, sequence (P43681 whole entry): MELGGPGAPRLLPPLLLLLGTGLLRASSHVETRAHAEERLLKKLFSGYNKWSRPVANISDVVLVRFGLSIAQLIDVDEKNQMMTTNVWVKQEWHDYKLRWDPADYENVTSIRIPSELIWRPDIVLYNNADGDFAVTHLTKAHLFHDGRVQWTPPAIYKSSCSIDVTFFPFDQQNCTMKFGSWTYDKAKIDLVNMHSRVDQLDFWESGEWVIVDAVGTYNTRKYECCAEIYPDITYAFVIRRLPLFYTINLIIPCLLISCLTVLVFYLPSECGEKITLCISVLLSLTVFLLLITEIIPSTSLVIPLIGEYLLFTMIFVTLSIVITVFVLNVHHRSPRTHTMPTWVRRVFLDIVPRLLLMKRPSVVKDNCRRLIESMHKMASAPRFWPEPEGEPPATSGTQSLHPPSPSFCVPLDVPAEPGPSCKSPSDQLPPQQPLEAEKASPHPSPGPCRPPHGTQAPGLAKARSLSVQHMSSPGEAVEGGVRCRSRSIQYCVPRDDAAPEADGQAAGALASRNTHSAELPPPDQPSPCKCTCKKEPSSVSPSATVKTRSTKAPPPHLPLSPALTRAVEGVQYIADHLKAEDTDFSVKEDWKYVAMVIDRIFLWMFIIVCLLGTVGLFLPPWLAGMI
Melanocortin receptor 3, sequence (P41968 whole entry): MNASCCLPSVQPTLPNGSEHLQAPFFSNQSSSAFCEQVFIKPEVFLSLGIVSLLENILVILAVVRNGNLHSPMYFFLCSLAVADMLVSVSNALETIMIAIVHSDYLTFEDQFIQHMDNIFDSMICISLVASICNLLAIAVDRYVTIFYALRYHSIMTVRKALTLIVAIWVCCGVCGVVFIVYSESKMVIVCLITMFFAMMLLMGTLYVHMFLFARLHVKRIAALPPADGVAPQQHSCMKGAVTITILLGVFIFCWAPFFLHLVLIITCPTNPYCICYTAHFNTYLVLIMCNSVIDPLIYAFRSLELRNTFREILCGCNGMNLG
Gamma-aminobutyric acid receptor subunit alpha-1, sequence (P62813 whole entry): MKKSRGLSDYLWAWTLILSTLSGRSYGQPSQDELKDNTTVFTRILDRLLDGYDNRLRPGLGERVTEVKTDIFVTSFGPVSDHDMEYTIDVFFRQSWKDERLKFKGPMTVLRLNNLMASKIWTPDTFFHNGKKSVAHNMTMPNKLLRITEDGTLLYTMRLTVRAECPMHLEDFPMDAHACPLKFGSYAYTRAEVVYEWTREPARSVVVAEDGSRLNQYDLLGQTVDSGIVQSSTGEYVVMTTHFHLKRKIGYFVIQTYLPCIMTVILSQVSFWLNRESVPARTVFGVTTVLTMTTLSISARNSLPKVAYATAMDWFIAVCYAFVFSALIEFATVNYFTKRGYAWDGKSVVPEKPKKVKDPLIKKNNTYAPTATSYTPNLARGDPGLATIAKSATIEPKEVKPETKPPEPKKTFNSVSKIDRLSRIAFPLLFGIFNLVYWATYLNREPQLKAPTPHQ
Vasopressin V1a receptor, sequence (P37288 whole entry): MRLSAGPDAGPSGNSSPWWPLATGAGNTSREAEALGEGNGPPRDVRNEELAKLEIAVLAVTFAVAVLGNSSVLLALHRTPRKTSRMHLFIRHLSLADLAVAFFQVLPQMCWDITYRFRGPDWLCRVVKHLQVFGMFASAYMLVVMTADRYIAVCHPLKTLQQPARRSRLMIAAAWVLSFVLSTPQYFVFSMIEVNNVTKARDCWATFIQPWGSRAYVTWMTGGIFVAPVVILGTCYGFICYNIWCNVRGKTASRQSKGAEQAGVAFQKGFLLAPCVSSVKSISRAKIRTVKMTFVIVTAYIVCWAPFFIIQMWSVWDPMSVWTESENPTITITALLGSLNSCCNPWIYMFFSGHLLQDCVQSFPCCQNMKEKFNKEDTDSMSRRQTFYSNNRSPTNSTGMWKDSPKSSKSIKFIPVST

CN1CC(=O)N2[C@H](c3ccc4c(c3)OCO4)c3[nH]c4ccccc4c3C[C@@H]2C1=O
AC50 (Vasopressin V1a receptor): > 30 µM
AC50 [1]: > 10 µM
AC50 [2]: > 10 µM
AC50 [3]: > 30 µM
AC50 [4]: > 10 µM
AC50 [5]: > 10 µM
AC50 [6]: > 30 µM
AC50 (Melanocortin receptor 3): > 30 µM
AC50 [7]: > 30 µM
AC50 [8]: > 30 µM
AC50 [9]: > 10 µM
AC50 (Thromboxane A2 receptor): > 30 µM
AC50 (D(3) dopamine receptor): > 30 µM

COc1ccc2cccc(CCNC(C)=O)c2c1 [AGOMELATINE]
AC50 (Vasopressin V1a receptor): > 10 µM
AC50 [1]: > 30 µM
AC50 [2]: > 30 µM
AC50 [3]: > 10 µM
AC50 [4]: > 10 µM
AC50 [5]: > 10 µM
AC50 [6]: > 30 µM
AC50 (Melanocortin receptor 3): > 30 µM
AC50 [7]: > 30 µM
AC50 [8]: > 30 µM
AC50 [9]: > 10 µM
AC50 (Thromboxane A2 receptor): > 30 µM
AC50 (D(3) dopamine receptor): > 10 µM

CN1CCc2cccc3c2[C@H]1Cc1ccc(O)c(O)c1-3 [APOMORPHINE]
AC50 (Vasopressin V1a receptor): > 30 µM
AC50 [1]: > 10 µM
AC50 [2]: > 10 µM
AC50 [3]: > 30 µM
AC50 [4]: > 10 µM
AC50 [5]: > 10 µM
AC50 (Melanocortin receptor 3): > 30 µM
AC50 [7]: > 20 µM
AC50 [8]: > 30 µM
AC50 [9]: 19.4 µM
AC50 (Thromboxane A2 receptor): > 30 µM

CN1C(=O)COc2c(C(=O)NC3CN4CCC3CC4)cc(Cl)cc21 (centres undefined) [AZASETRON]
AC50 (Vasopressin V1a receptor): > 30 µM
AC50 [1]: > 30 µM
AC50 [2]: > 30 µM
AC50 [4]: > 30 µM
AC50 [5]: > 30 µM
AC50 [6]: 8.5 µM
AC50 (Melanocortin receptor 3): > 30 µM
AC50 [7]: > 30 µM
AC50 [8]: > 30 µM
AC50 [9]: > 30 µM
AC50 (Progesterone receptor): > 30 µM
AC50 (Thromboxane A2 receptor): > 30 µM
AC50 (D(3) dopamine receptor): > 30 µM

NC(CO)C(=O)NNCc1ccc(O)c(O)c1O (centres undefined) [BENSERAZIDE]
AC50 (Vasopressin V1a receptor): > 30 µM
AC50 [1]: > 10 µM
AC50 [2]: > 10 µM
AC50 [3]: > 30 µM
AC50 [4]: > 10 µM
AC50 [5]: > 10 µM
AC50 [6]: > 30 µM
AC50 (Melanocortin receptor 3): > 30 µM
AC50 [7]: 5.67 µM
AC50 [8]: 30 µM
AC50 [9]: > 10 µM
AC50 (Thromboxane A2 receptor): > 30 µM
AC50 (D(3) dopamine receptor): > 30 µM

Cc1cc2c(OCC(CNC(C)(C)C)OC(=O)c3ccccc3)cccc2[nH]1 (centres undefined) [BOPINDOLOL]
AC50 (Vasopressin V1a receptor): > 30 µM
AC50 [1]: > 30 µM
AC50 [2]: > 30 µM
AC50 [4]: > 30 µM
AC50 [5]: > 30 µM
AC50 [6]: 0.49 µM
AC50 (Melanocortin receptor 3): > 30 µM
AC50 [7]: > 30 µM
AC50 [8]: > 30 µM
AC50 [9]: 2.1 µM
AC50 (Progesterone receptor): > 30 µM
AC50 (Thromboxane A2 receptor): > 30 µM
AC50 (D(3) dopamine receptor): > 30 µM

CN(C)C(=O)OC1N=C(c2ccccc2)c2cc(Cl)ccc2N(C)C1=O (centres undefined) [CAMAZEPAM]
AC50 (Vasopressin V1a receptor): > 10 µM
AC50 [1]: > 10 µM
AC50 [2]: > 10 µM
AC50 [3]: > 10 µM
AC50 [4]: > 10 µM
AC50 [5]: > 10 µM
AC50 [6]: > 30 µM
AC50 (Melanocortin receptor 3): > 30 µM
AC50 [7]: > 30 µM
AC50 [8]: > 10 µM
AC50 [9]: > 10 µM
AC50 (Thromboxane A2 receptor): > 30 µM
AC50 (D(3) dopamine receptor): > 10 µM

— ChEMBL document CHEMBL5291721, “A preclinical secondary pharmacology resource illuminates target-adverse drug reaction associations of marketed drugs” (Nat Commun, 2023)
